The results in this text go back to paper PMC11031590, “Narazaciclib, a novel multi-kinase inhibitor with potent activity against CSF1R, FLT3 and CDK6, shows strong anti-AML activity in defined preclinical models” (Scientific Reports, 2024).

Several values for one entry are separate records, joined by “and”; a condition that tells them apart may be missing. Equal values may be shown once. Read-outs that look alike come from different tables or passages of the source.

Series [1] relates to Ba/F3-FLT3. The series is described as follows: Ba/F3-FLT3 proliferation assay. In kind it is cell-based, mouse. The method, then: (§1) The recombinant Ba/F3 cell lines overexpressing human CSF1R, or human RBM6-CSF1R, or human ETV6-CSF1R were generated using a retrovirus vector (Kyinno Co., Ltd. Beijing). The recombinant Ba/F3 lines overexpressing human Kras G12C orEGFR-L718Q mutants, and different mutant variants of FLT3 were also similarly created as well. A standard proliferation assay via CTG readout was performed according to the vendor’s instructions (KYinno Biotechnology Co., Ltd. Beijing).

For series [2], the system named is Ba/F3-EGFR-L718Q. In words: Ba/F3-EGFR-L718Q proliferation assay (CTG). The series is classed as cell-based. The following applies: Mus musculus. The method, then: as §1
Series [3] is described as follows: Single-dose oral pharmacokinetics in non-tumor bearing mice. The series is classed as in vivo. The following applies: female, NOD/scid; for CL/F: read-out: CL_F (converted). The method, then: In order to understand the effective anti-AML exposure of narazaciclib in mice, we conducted a preliminary pharmacokinetic (PK) analysis of a single-dose oral administration of narazaciclib, at the same dose levels as in anti-AML pharmacology study above, in non-tumor bearing mice. Following a single oral administration of narazaciclib at either 30 mg/kg or 100 mg/kg in mice, plasma samples were collected at various timepoints. The plasma concentrations of narazaciclib were analyzed by LC–MS. […] In addition, narazaciclib undergoes relatively fast elimination from plasma with a T1/2 of 2.77 h for narazaciclib at 100 mg/kg or 1.92 h at 30 mg/kg.
Noncompartmental analyses (NCA) were performed using WinNonlinTM Phoenix, version XXX software (Pharsight, Cary, NC) to estimate the PK parameters including T1/2, elimination half-life; Tmax, Time to peak drug concentration; Cmax, maximum concentration; AUC0-∞, area under the plasma concentration–time curve from zero to infinity; AUC0-t, area under the plasma concentration–time curve from zero to the time of the last quantifiable time-point; CL_F, total body clearance; Vz-F, total volume of distribution. Following a single oral administration of narazaciclib at either 100 mg/kg or 30 mg/kg in female NOD/scid mice (N = 3), plasma samples were collected from 3 mice at each timepoint (pre-dose, 1h, 2h, 4h, 8h, 12h and24hpost administration) and analyzed by LC–MS.

The subject of series [4] is Ba/F3-FLT3-ITD. In words: Ba/F3-FLT3-ITD proliferation assay. The series is classed as cell-based, mouse. The method, then:
as §1

Series [5] addresses FLT3 (Homo sapiens, UniProt P36888). The series is described as follows: FLT3 kinase inhibition assay (ADP-Glo). In kind it is biochemical. The following applies: ATP 10 μM; read-out: IC50 FLT3 enzymatic activity. The protocol:
Different assays were used to measure the inhibitory potencies of narazaciclib on FLT3, CSF1R and CDK6. For FLT3 inhibition, the enzyme, substrate (final concentration at 15 μg/μL), ATP (final concentration at 10 μM) and inhibitors were diluted and mixed in kinase buffer (40 mM Tris, pH 7.5; 20 mM MgCl2; 0.1 mg/ml BSA; 50 μM DTT). The mixtures were incubated at 25 °C for 120 min. Then, ADP‐Glo™ Reagent (Promega) was added to the mix and incubated at 25 °C for 40 min followed by the addition of kinase detection reagent and another 30 min at 25 °C. Luminescence was recorded with an integration time of 0.5 s.

The test system of series [6] is Ba/F3-ETV6-CSF1R xenograft. In words: Ba/F3-ETV6-CSF1R subcutaneous xenograft model. The following applies: either 50 mg/kg or 100 mg/kg. In kind it is in vivo, NOD/scid mice. The source says:
The subcutaneous cell line xenograft (CDX) models and systemic patient-derived xenograft (PDX) models of AML have been extensively described before. For the subcutaneous MV-4-11 CDX model, 5 × 10^6 MV-4-11 tumor cells harvested from exponential growth phase were mixed with Matrigel (1:1) and then inoculated into the right front flank region of 6- to 7-week-old female NOD/scid mice for tumor development. MV-4-11 tumor-bearing mice were randomized into 5 groups (N = 8) when their tumor volume reached approximately 100 mm^3 and received their designated treatments following randomization. Narazaciclib was administrated intraperitoneally at 100 mg/kg twice per week for 3 weeks, while Azacitidine was administrated intraperitoneally at 3 mg/kg twice per week for 3 weeks. For the subcutaneous Ba/F3-ETV6-CSF1R CDX model, 1 × 10^6 Ba/F3-ETV6-CSF1R tumor cells harvested from exponential growth phase were mixed with Matrigel (1:1) and then inoculated into the right front flank region of 6- to 8-week-old female NOD/scid mice for tumor development. Ba/F3-ETV6-CSF1R tumor-bearing mice were randomized into 5 groups (N = 6) when their tumor volume reached approximately 100 mm^3 and received their designated treatments following randomization. […] Tumor volume and body weight were measured at different time points and tumor growth inhibition (TGI) was used as index to determine the therapeutic efficacy.

The subject of series [7] is Ba/F3-FLT3-ITD (F691L). In words: Ba/F3-FLT3-ITD (F691L) proliferation assay. The series is classed as cell-based, mouse. The method, then:
as §1

Series [8] deals with Ba/F3-RBM6-CSF1R cell line. The series is described as follows: Ba/F3-RBM6-CSF1R proliferation assay (CTG). The series is classed as cell-based, mouse. The following applies: Mus musculus; not requiring CSF1. The method, then: as §1
[9] abbreviates: 30 mg/kg single oral, mouse plasma.
Where [10] appears, read: 100 mg/kg single oral, mouse plasma.

Sequence of FLT3 (P36888 27-993): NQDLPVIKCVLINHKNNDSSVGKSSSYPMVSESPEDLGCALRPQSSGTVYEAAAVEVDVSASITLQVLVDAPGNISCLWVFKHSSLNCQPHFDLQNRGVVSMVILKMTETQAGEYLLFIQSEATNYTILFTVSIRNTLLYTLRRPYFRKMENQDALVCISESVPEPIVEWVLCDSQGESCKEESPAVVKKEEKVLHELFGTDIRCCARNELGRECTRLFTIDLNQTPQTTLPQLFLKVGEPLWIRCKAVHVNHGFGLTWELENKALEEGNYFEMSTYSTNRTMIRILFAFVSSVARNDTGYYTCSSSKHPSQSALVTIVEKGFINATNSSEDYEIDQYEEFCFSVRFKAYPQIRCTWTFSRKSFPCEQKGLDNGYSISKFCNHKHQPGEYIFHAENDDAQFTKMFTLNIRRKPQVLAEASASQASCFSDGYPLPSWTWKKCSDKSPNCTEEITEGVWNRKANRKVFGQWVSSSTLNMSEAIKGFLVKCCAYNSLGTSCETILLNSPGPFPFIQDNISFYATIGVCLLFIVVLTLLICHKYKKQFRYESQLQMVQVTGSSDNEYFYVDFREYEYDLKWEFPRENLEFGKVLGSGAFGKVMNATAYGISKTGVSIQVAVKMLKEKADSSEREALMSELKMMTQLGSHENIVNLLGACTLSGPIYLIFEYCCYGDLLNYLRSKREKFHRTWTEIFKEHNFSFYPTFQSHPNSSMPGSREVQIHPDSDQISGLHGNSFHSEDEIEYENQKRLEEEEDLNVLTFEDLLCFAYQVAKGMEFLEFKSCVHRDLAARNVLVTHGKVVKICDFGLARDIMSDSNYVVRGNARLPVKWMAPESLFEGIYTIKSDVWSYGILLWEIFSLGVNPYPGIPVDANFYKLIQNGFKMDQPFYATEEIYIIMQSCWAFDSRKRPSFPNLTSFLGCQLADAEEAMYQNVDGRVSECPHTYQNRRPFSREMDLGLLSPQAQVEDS

With `CN1CCN(c2ccc(Nc3ncc4cc(C#N)c(=O)n(C5CCCC5)c4n3)cc2)CC1` [Narazaciclib, narazaciclib], the “% of Ba/F3-FLT3 (IC50)” value in series [1] (Ba/F3-FLT3) stood at 100.00%; in series [4], 31.66%; in series [7], 53.85%. Also, the IC50 in series [1] (Mus musculus, Ba/F3-FLT3 (wild type)) is 301 nM; in series [2] it was 633 nM; in series [4] (Mus musculus), 95.3 nM; in series [5], ~19.8 nM and 19.8 nM; in series [7] (Mus musculus), 162 nM; in series [8], 36.9 nM. Also, the AUC(0-inf) in series [3] (mouse, plasma, oral, corresponding to 100 mg/kg dose level, read-out: efficacious exposure for anti-AML in mice in terms of AUC0~∞) is below 8190 ng·h/mL; in series [3] (30 mg/kg single oral, mouse plasma, read-out: AUC0-∞) it was 1200 ng·h/mL; in series [3] (100 mg/kg single oral, mouse plasma, read-out: AUC0-∞), 8210 ng·h/mL. For the same compound, the Cmax in series [3] (mouse, plasma, oral, corresponding to 100 mg/kg dose level, read-out: efficacious exposure for anti-AML in mice in terms of Cmax) is below 1460 ng/mL; in series [3] (30 mg/kg single oral, mouse plasma, read-out: Cmax), 469 ng/mL; in series [3] (100 mg/kg single oral, mouse plasma, read-out: Cmax) it was 1460 ng/mL. Moreover, the AUC(0-t) in series [3] (setting [9]) is 1040 ng·h/mL; in series [3] (setting [10]), 8190 ng·h/mL. Moreover, the Tmax in series [3] (setting [9]) came out at 1 h; in series [3] (setting [10]), 2 h. Besides, the figures for the half-life in series [3] (setting [9]) and in series [3] (setting [10]) were 1.92 h and 2.77 h, respectively. For the same compound, the CL/F in series [3] (setting [9]) was 415 mL/min/kg; in series [3] (setting [10]), 203 mL/min/kg. In addition, the tumor growth result in series [6] is listed as “significantly delayed the tumor growth”.
